Results as given in patent US20090215778A1, “Alpha-substituted Arylmethyl Piperazine Pyrazolo [1,5-alpha]Pyrimidine Amide Derivatives” (priority 2007, published 2009).

Key:
[1] = target: T1, HIV Env six-helix bundle (6HB) structure (Human immunodeficiency virus type 1 group M subtype B, UniProt P04579); assay: Six-helix bundle (6HB) assay; assay type: cell-based, HIV-1 (strain RF)
T1 construct: H9 cells chronically infected with HIV-1 (H9/HIV-1RF); endogenous in cells; host or cells: H9 cells chronically infected with HIV-1 strain RF (Env is made from the virus in the infected cells, not by transfection)
T1 sequence (P04579 32-519): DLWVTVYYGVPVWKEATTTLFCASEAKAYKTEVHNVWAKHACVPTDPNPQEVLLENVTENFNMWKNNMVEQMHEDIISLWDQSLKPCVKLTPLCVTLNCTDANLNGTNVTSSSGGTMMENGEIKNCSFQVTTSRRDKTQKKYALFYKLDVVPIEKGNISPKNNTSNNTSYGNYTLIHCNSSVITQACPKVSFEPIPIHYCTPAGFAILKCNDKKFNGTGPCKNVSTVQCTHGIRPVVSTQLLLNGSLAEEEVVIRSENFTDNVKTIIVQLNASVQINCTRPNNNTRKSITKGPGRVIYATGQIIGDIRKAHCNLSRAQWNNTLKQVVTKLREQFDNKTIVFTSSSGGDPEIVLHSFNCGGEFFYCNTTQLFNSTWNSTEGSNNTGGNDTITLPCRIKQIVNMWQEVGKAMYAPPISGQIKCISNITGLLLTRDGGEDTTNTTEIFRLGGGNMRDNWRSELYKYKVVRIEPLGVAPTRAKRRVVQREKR
T1 sequence (P04579 520-865): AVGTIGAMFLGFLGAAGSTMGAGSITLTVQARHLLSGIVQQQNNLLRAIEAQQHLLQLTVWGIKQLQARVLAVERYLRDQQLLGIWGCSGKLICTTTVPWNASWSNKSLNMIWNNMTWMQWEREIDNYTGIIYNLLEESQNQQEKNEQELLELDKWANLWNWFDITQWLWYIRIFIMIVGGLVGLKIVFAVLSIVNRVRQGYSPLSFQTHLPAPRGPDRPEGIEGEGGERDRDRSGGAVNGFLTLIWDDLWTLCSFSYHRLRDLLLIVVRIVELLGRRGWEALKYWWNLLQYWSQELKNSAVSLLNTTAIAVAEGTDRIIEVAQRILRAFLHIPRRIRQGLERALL
Protocol: 3×10^6H9 cells were incubated with 1 mL of HIV-1 (strain RF) supplemented with 40 μg/mL of DEAE-dextran. Virus and cells were incubated together at 37° C. for 2-4 hours with sporadic shaking to resuspend cells. 10 mL of media (RPMI 1640 containing 10% fetal bovine serum and supplemented with 50 μg/mL gentamicin) was then added and the virus-cell coculture was incubated at 37° C. in a humidified 5% CO2 incubator. 3 days post-infection and every 2-3 days thereafter, the infected H9/HIV-1RF cells were centrifuged, the supernatant was removed, and the cells were resuspended at a density of 0.3×10^6 cells/mL in media (RPMI 1640 containing 10% fetal bovine serum and supplemented with 50 μg/mL gentamicin). Chronically infected H9/HIV-1RF cells were used in experiments starting 12-15 days after infection and up to 40 days post-infection.
This assay determines the effect of compounds on conformational changes in HIV envelope glycoprotein (Env) that are required in order for Env to mediate the fusion of the viral and cellular membranes during virus entry and infection. Specifically, this assay measures the effect of compounds on the formation of the HIV Env six-helix bundle (6HB) structure.
H9 cells chronically infected with HIV-1 (H9/HIV-1RF) were resuspended in Stain/Wash Buffer (1% bovine serum albumin, 0.1% sodium azide in phosphate-buffered saline) and aliquoted at 2.5×10^5 cells per well into 96-well V-bottom plates containing various concentrations of test compounds. Cells and compounds were incubated for 30 minutes at 37° C. Recombinant soluble CD4 (sCD4) was then added to a final concentration of 1 μg/mL. Negative control wells contained no sCD4 and no test compound. Positive control wells contained sCD4 but no test compound. The plate was incubated for 1 hour at 37° C. to allow the sCD4 to bind to HIV Env and induce conformational changes in the Env protein. Antibody that is specific for the HIV Env six-helix bundle conformation was then added (1 μL polyclonal rabbit serum per well), and the plate was incubated for an additional 1 hour at 37° C. to permit antibody binding. The cells were then washed once with Stain/Wash Buffer to remove compound and excess antibody. The cells were resuspended in Stain/Wash Buffer containing PE-labeled anti-rabbit secondary antibody (KPL) at 0.25 μg per well. The cells were incubated for 45 min at 4° C. to permit secondary antibody binding. Fluorescence was detected using a BD FACSArray™ bioanalyzer. Compounds that inhibited Env conformational changes were identified as those that decreased primary antibody binding to the six-helix bundle epitope resulting in a decrease in fluorescence signal.

HIV-1, NL4-3 strain = assay: Virus infection assay (virus entry and single-cycle infection); assay type: cell-based; details: Human immunodeficiency virus 1, NL43, TZM-b1, read-out: Nl4
Protocol: TZM-b1 indicator cells were propagated in Dulbecco's Modified Eagle's Medium (DMEM) containing 10% fetal bovine serum (FBS, heat-inactivated) and supplemented with gentamicin (50 ug/mL).
This assay determines the effects of compounds on virus entry and single-cycle infection of cells. In this assay, virus (HIV-1, NL4-3 strain) is added to indicator cells expressing the CD4 receptor and both the CXCR4 and CCR5 co-receptor. The cells contain both a lac Z and a luciferase reporter gene under control of the viral LTR transcription promoter. The cells and virus are incubated together in the presence of various concentrations of test compounds. Successful infection of the cells by the virus permits activation of the reporter gene by the viral Tat transcription factor. The resulting beta-galactosidase or luciferase activity is quantitated using a chemiluminescent substrate and a luminescent plate reader.
Specifically, one day prior to infection, 1.5×10^4 TZM-b1 indicator cells were added to each well of a 96-well microtiter plate. On the day of the experiment, virus (MOI 0.01) in 50 μL of medium (Dulbecco's Modified Eagle's Medium) supplemented with DEAE-dextran at a final concentration of 80 μg/mL was added to cells along with various concentrations of test compound in 50 μL of Dulbecco's Modified Eagle's Medium. Control wells had virus alone. Following a 4 hr incubation at 37° C., complete media [DMEM supplemented with 10% fetal bovine serum (FBS, heat-inactivated) and gentamicin (50 ug/mL)] was added. One day post-infection the level of virus infection was quantitated by detection of β-galactosidase expression using the Gal-Screen system (Applied Biosystems).

SMILES	IC50 [1] [µM]	IC50 (HIV-1, NL4-3 strain) [µM]
COc1ccc(-c2nc3c(C(=O)N4CCN(C(CO)c5cccc(C(C)=O)c5)C[C@H]4C)cnn3c(C(F)(F)F)c2C)cc1 (stereo partly drawn) [ethanone, 1-[3-[2-hydroxy-1-[(3R)-4-[[5-(4-methoxyphenyl)-6-methyl-7-(trifluoromethyl)pyrazolo[1,5-α]pyrimidin-3-yl]carbonyl]-3-methyl-1-piperazinyl]ethyl]phenyl]-]	< 1	< 1
COc1ccc(-c2nc3c(C(=O)N4CCN(C(CO)c5cc(C(C)=O)ccc5F)C[C@H]4C)cnn3c(C(F)(F)F)c2C)cc1 (stereo partly drawn) [ethanone, 1-[4-fluoro-3-[2-hydroxy-1-[(3R)-4-[[5-(4-methoxyphenyl)-6-methyl-7-(trifluoromethyl)pyrazolo[1,5-α]pyrimidin-3-yl]carbonyl]-3-methyl-1-piperazinyl]ethyl]phenyl]-]	< 1	< 1
COc1ccc(-c2nc3c(C(=O)N4CCN([C@H](CO)c5ccc(C(C)=O)s5)C[C@H]4C)cnn3c(C(F)(F)F)c2C)cc1 [ethanone, 1-[5-[(1R)-2-hydroxy-1-[(3R)-4-[[5-(4-methoxyphenyl)-6-methyl-7-(trifluoromethyl)pyrazolo[1,5-α]pyrimidin-3-yl]carbonyl]-3-methyl-1-piperazinyl]ethyl]-2-thienyl]-]	< 1	1.1 to 10
COc1ccc(-c2nc3c(C(=O)N4CCN([C@@H](CO)c5ccc(C(C)=O)s5)C[C@H]4C)cnn3c(C(F)(F)F)c2C)cc1 [ethanone, 1-[5-[(1S)-2-hydroxy-1-[(3R)-4-[[5-(4-methoxyphenyl)-6-methyl-7-(trifluoromethyl)pyrazolo[1,5-α]pyrimidin-3-yl]carbonyl]-3-methyl-1-piperazinyl]ethyl]-2-thienyl]-]	< 1	1.1 to 10
COc1ccc(-c2nc3c(C(=O)N4CCN(C(CNS(C)(=O)=O)c5ccccc5)C[C@H]4C)cnn3c(C(F)(F)F)c2C)cc1 (stereo partly drawn) [methanesulfonamide, N-[2-[(3R)-4-[[5-(4-methoxyphenyl)-6-methyl-7-(trifluoromethyl)pyrazolo[1,5-α]pyrimidin-3-yl]carbonyl]-3-methyl-1-piperazinyl]-2-phenylethyl]-, 2,2,2-trifluoroacetate]	< 1	< 1
COc1ccc(-c2nc3c(C(=O)N4CCN([C@@H](C)c5cccc(NS(C)(=O)=O)c5)C[C@H]4C)cnn3c(C(F)(F)F)c2C)cc1 [methanesulfonamide, N-[3-[(1S)-1-[(3R)-4-[[5-(4-methoxyphenyl)-6-methyl-7-(trifluoromethyl)pyrazolo[1,5-α]pyrimidin-3-yl]carbonyl]-3-methyl-1-piperazinyl]ethyl]phenyl]-]	< 1	< 1
COc1ccc(-c2nc3c(C(=O)N4CCN(C(CO)c5ccccc5)CC4)cnn3c(C(F)(F)F)c2C)cc1 (stereo not drawn) [methanone, [4-(2-hydroxy-1-phenylethyl)-1-piperazinyl][5-(4-methoxyphenyl)-6-methyl-7-(trifluoromethyl)pyrazolo[1,5-α]pyrimidin-3-yl]-]	< 1	< 1
COc1ccc2c(c1)CCc1c-2nc2c(C(=O)N3CCN([C@@H](CO)c4ccccc4)C[C@H]3C)cnn2c1C(F)(F)F [methanone, [5,6-dihydro-3-methoxy-7-(trifluoromethyl)benzo[h]pyrazolo[5,1-b]quinazolin-11-yl][(2R)-4-[(1R)-2-hydroxy-1-phenylethyl]-2-methyl-1-piperazinyl]-]	< 1	< 1
Cc1c(-c2ccc(C3CC3)cc2)nc2c(C(=O)N3CCN([C@@H](CO)c4ccccc4)C[C@H]3C)cnn2c1C(F)(F)F [methanone, [5-(4-cyclopropylphenyl)-6-methyl-7-(trifluoromethyl)pyrazolo[1,5-α]pyrimidin-3-yl][(2R)-4-[(1R)-2-hydroxy-1-phenylethyl]-2-methyl-1-piperazinyl]-]	< 1	< 1
CCc1ccc(-c2nc3c(C(=O)N4CCN([C@@H](CO)c5ccccc5)C[C@H]4C)cnn3c(C(F)(F)F)c2C)cc1 [methanone, [5-(4-ethylphenyl)-6-methyl-7-(trifluoromethyl)pyrazolo[1,5-α]pyrimidin-3-yl][(2R)-4-[(1R)-2-hydroxy-1-phenylethyl]-2-methyl-1-piperazinyl]-]	< 1	< 1
C=CCN(C)CC(c1ccccc1)N1CCN(C(=O)c2cnn3c(C(F)(F)F)c(C)c(-c4ccc(OC)cc4)nc23)[C@H](C)C1 (stereo partly drawn) [methanone, [5-(4-methoxyphenyl)-6-methyl-7-(trifluoromethyl)pyrazolo[1,5-α]pyrimidin-3-yl][(2R)-2-methyl-4-[2-(methyl-2-propen-1-ylamino)-1-phenylethyl]-1-piperazinyl]]	< 1	< 1
CNCC(c1ccccc1)N1CCN(C(=O)c2cnn3c(C(F)(F)F)c(C)c(-c4ccc(OC)cc4)nc23)[C@H](C)C1 (stereo partly drawn) [methanone, [5-(4-methoxyphenyl)-6-methyl-7-(trifluoromethyl)pyrazolo[1,5-α]pyrimidin-3-yl][(2R)-2-methyl-4-[2-(methylamino)-1-phenylethyl]-1-piperazinyl]-]	< 1	< 1
COc1ccc(-c2nc3c(C(=O)N4CCN([C@H](C)c5cc(F)cc(F)c5F)C[C@H]4C)cnn3c(C(F)(F)F)c2C)cc1 [methanone, [5-(4-methoxyphenyl)-6-methyl-7-(trifluoromethyl)pyrazolo[1,5-α]pyrimidin-3-yl][(2R)-2-methyl-4-[(1R)-1-(2,3,5-trifluorophenyl)ethyl]-1-piperazinyl]-]	< 1	< 1
COc1ccc(-c2nc3c(C(=O)N4CCN([C@H](C)c5cc(F)c(F)c(F)c5)C[C@H]4C)cnn3c(C(F)(F)F)c2C)cc1 [methanone, [5-(4-methoxyphenyl)-6-methyl-7-(trifluoromethyl)pyrazolo[1,5-α]pyrimidin-3-yl][(2R)-2-methyl-4-[(1R)-1-(3,4,5-trifluorophenyl)ethyl]-1-piperazinyl]-]	< 1	< 1
COc1ccc(-c2nc3c(C(=O)N4CCN([C@H](C)c5ccccc5)C[C@H]4C)cnn3c(C(F)(F)F)c2C)cc1 [methanone, [5-(4-methoxyphenyl)-6-methyl-7-(trifluoromethyl)pyrazolo[1,5-α]pyrimidin-3-yl][(2R)-2-methyl-4-[(1R)-1-phenylethyl]-1-piperazinyl]-]	< 1	< 1
COc1ccc(-c2nc3c(C(=O)N4CCN([C@H](c5ccccc5)C(F)(F)F)C[C@H]4C)cnn3c(C(F)(F)F)c2C)cc1 [methanone, [5-(4-methoxyphenyl)-6-methyl-7-(trifluoromethyl)pyrazolo[1,5-α]pyrimidin-3-yl][(2R)-2-methyl-4-[(1R)-2,2,2-trifluoro-1-phenylethyl]-1-piperazinyl]-]	< 1	< 1
COc1ccc(-c2nc3c(C(=O)N4CCN([C@@H](C)c5ccn(C)n5)C[C@H]4C)cnn3c(C(F)(F)F)c2C)cc1 [methanone, [5-(4-methoxyphenyl)-6-methyl-7-(trifluoromethyl)pyrazolo[1,5-α]pyrimidin-3-yl][(2R)-2-methyl-4-[(1S)-1-(1-methyl-1H-pyrazol-3-yl)ethyl]-1-piperazinyl]-]	1.1 to 10	< 1
